# Reference: patent publication US9073855B2, “BCL-2 selective apoptosis-inducing agents for the treatment of cancer and immune diseases” (AbbVie Inc., priority 2008, dated 2015)
# What was measured:
# GST-Bcl-2 = GST-Bcl-2 (Homo sapiens, UniProt P10415); test: TR-FRET binding assay, GST-Bcl-2 with F-Bak peptide probe; conditions: for Ki: TR-FRET Binding Affinity
# Summary of the method: (§1)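 Compounds were serially diluted in DMSO from a 50 μM starting solution (2× the starting concentration; 10% DMSO). Plates were incubated for 3 h at room temperature, and TR-FRET was read with 340/35 nm excitation and emission at 520/525 nm (F-Bak) and 495/510 nm (Tb antibody). Ki values were calculated using Wang's competitive-binding equation.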
# GST-Bcl-XL = GST-Bcl-XL (Homo sapiens, UniProt Q07817); test: TR-FRET binding assay, GST-Bcl-XL with F-Bak peptide probe; conditions: TR-FRET Binding Affinity
# Chain of GST-Bcl-XL (Q07817 whole entry): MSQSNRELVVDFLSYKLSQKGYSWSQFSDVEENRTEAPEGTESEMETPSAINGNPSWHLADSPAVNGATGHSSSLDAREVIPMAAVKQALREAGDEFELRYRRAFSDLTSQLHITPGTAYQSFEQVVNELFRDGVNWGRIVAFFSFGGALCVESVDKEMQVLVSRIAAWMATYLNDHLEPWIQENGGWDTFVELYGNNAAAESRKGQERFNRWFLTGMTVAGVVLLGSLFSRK
# Summary of the method: as §1
# [1] = ratio of TR-FRET Ki values, Bcl-XL over Bcl-2
# [2] = GST-Bcl-XL, F-Bak peptide probe
# [3] = TR-FRET, Bcl-XL Ki divided by Bcl-2 Ki
# Chain of GST-Bcl-2 (P10415 whole entry): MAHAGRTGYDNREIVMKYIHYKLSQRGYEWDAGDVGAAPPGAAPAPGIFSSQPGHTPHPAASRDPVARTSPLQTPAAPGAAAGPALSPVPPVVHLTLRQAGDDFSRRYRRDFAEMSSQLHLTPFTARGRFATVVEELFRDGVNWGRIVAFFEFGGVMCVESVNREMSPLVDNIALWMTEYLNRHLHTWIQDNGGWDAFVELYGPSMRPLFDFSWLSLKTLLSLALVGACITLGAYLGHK
SMILES,"Ki (GST-Bcl-2; GST-Bcl-2, F-Bak peptide probe) [nM]",Binding selectivity ratio (Bcl-XL Ki/Bcl-2 Ki) (GST-Bcl-2; [1]),Ki (GST-Bcl-XL; [2]) [nM],Ki (GST-Bcl-2) [nM],Binding selectivity ratio (Bcl-XL Ki/Bcl-2 Ki) (GST-Bcl-2; [3]),Ki (GST-Bcl-XL) [nM]
"CN(C)CC(=O)N1CC[C@@H](Nc2ccc(S(=O)(=O)NC(=O)c3ccc(N4CCN(CC5=C(c6ccc(Cl)cc6)CC(C)(C)CC5)CC4)cc3Oc3cccc4[nH]cnc34)cc2[N+](=O)[O-])C1 [Example 430, 2-(1H-benzimidazol-4-yloxy)-4-(4-{[2-(4-chlorophenyl)-4,4-dimethylcyclohex-1-en-1-yl]methyl}piperazin-1-yl)-N-[(4-{[(3R)-1-(N,N-dimethylglycyl)pyrrolidin-3-yl]amino}-3-nitrophenyl)sulfonyl]benzamide]",< 0.01,99.8,0.998,–,–,–
"CC1(C)CCC(CN2CCN(c3ccc(C(=O)NS(=O)(=O)c4ccc(NCC5CN(C6CC6)CCO5)c([N+](=O)[O-])c4)c(Oc4cccc5[nH]cnc45)c3)CC2)=C(c2ccc(Cl)cc2)C1 (stereo not drawn) [Example 432, 2-(1H-benzimidazol-4-yloxy)-4-(4-{[2-(4-chlorophenyl)-4,4-dimethylcyclohex-1-en-1-yl]methyl}piperazin-1-yl)-N-[(4-{[(4-cyclopropylmorpholin-2-yl)methyl]amino}-3-nitrophenyl)sulfonyl]benzamide]",0.023,408.8,9.3,–,–,–
"CC1(C)CCC(CN2CCN(c3ccc(C(=O)NS(=O)(=O)c4cnc(OCC5CCC(C)(O)CC5)c(Cl)c4)c(Oc4cccc5[nH]ncc45)c3)CC2)=C(c2ccc(Cl)cc2)C1 (stereo not drawn) [Example 493, N-({5-chloro-6-[(cis-4-hydroxy-4-methylcyclohexyl)methoxy]pyridin-3-yl}sulfonyl)-4-(4-{[2-(4-chlorophenyl)-4,4-dimethylcyclohex-1-en-1-yl]methyl}piperazin-1-yl)-2-(1H-indazol-4-yloxy)benzamide]",–,–,–,< 0.01,>4188.3,41.9
"CC1(C)CCC(CN2CCN(c3ccc(C(=O)NS(=O)(=O)c4cnc(OCC5CCC(F)(F)CC5)c(Cl)c4)c(Oc4cccc5[nH]ncc45)c3)CC2)=C(c2ccc(Cl)cc2)C1 [Example 482, N-({5-chloro-6-[(4,4-difluorocyclohexyl)methoxy]pyridin-3-yl}sulfonyl)-4-(4-{[2-(4-chlorophenyl)-4,4-dimethylcyclohex-1-en-1-yl]methyl}piperazin-1-yl)-2-(1H-indazol-4-yloxy)benzamide]",–,–,–,0.064,5442.9,350
"CC1(C)CCC(CN2CCN(c3ccc(C(=O)NS(=O)(=O)c4cnc(NC5CCN(C6CC6)CC5)c(Cl)c4)c(Oc4cccc5[nH]ncc45)c3)CC2)=C(c2ccc(Cl)cc2)C1 [Example 448, N-({5-chloro-6-[(1-cyclopropylpiperidin-4-yl)amino]pyridin-3-yl}sulfonyl)-4-(4-{[2-(4-chlorophenyl)-4,4-dimethylcyclohex-1-en-1-yl]methyl}piperazin-1-yl)-2-(1H-indazol-4-yloxy)benzamide]",–,–,–,0.005,3119.3,14.6
"CC1(C)CCC(CN2CCN(c3ccc(C(=O)NS(=O)(=O)c4cnc(OC[C@@H]5CCN(C(CF)CF)C5)c(Cl)c4)c(Oc4cccc5[nH]ncc45)c3)CC2)=C(c2ccc(Cl)cc2)C1 [Example 444, N-{[5-chloro-6-({(3R)-1-[2-fluoro-1-(fluoromethyl)ethyl]pyrrolidin-3-yl}methoxy)pyridin-3-yl]sulfonyl}-4-(4-{[2-(4-chlorophenyl)-4,4-dimethylcyclohex-1-en-1-yl]methyl}piperazin-1-yl)-2-(1H-indazol-4-yloxy)benzamide]",–,–,–,0.112,727.6,81.5
"CN(C)CCCNc1ccc(S(=O)(=O)NC(=O)c2ccc(N3CCN(Cc4ccccc4-c4ccc(Cl)cc4)CC3)cc2Oc2cccc3cnccc23)cc1[N+](=O)[O-] [Example 42, 4-{4-[(4′-chloro-1,1′-biphenyl-2-yl)methyl]piperazin-1-yl}-N-[(4-{[3-(dimethylamino)propyl]amino}-3-nitrophenyl)sulfonyl]-2-(isoquinolin-5-yloxy)benzamide]",0.048,–,3.84,–,–,–
"CC1(C)CCC(CN2CCN(c3ccc(C(=O)NS(=O)(=O)c4ccc(NC[C@H]5CN(C6CC6)CCO5)c([N+](=O)[O-])c4)c(Oc4cccc5[nH]cnc45)c3)CC2)=C(c2ccc(Cl)cc2)C1 [Example 530, 2-(1H-benzimidazol-4-yloxy)-4-(4-{[2-(4-chlorophenyl)-4,4-dimethylcyclohex-1-en-1-yl]methyl}piperazin-1-yl)-N-{[4-({[(2S)-4-cyclopropylmorpholin-2-yl]methyl}amino)-3-nitrophenyl]sulfonyl}benzamide]",–,–,–,< 0.01,>7666.0,76.7
"O=C(NS(=O)(=O)c1cnc(OCC2(F)CCN(C3COC3)CC2)c(Cl)c1)c1ccc(N2CCN(CC3=C(c4ccc(Cl)cc4)CCC(F)(F)C3)CC2)cc1Oc1cccc2[nH]ncc12 [Example 522, N-[(5-chloro-6-{[4-fluoro-1-(oxetan-3-yl)piperidin-4-yl]methoxy}pyridin-3-yl)sulfonyl]-4-(4-{[2-(4-chlorophenyl)-5,5-difluorocyclohex-1-en-1-yl]methyl}piperazin-1-yl)-2-(1H-indazol-4-yloxy)benzamide]",–,–,–,< 0.01,>207.9,2.08
"CN1CCN(Nc2ccc(S(=O)(=O)NC(=O)c3ccc(N4CCN(CC5=C(c6ccc(Cl)cc6)CC(C)(C)CC5)CC4)cc3Oc3cccc4[nH]cnc34)cc2[N+](=O)[O-])CC1 [Example 453, 2-(1H-benzimidazol-4-yloxy)-4-(4-{[2-(4-chlorophenyl)-4,4-dimethylcyclohex-1-en-1-yl]methyl}piperazin-1-yl)-N-({4-[(4-methylpiperazin-1-yl)amino]-3-nitrophenyl}sulfonyl)benzamide]",–,–,–,< 0.01,363.0,3.63
"CC[C@]1(O)CC[C@@H](COc2ncc(S(=O)(=O)NC(=O)c3ccc(N4CCN(CC5=C(c6ccc(Cl)cc6)CC(C)(C)CC5)CC4)cc3Oc3cccc4[nH]ncc34)cc2Cl)CC1 [Example 509, N-({5-chloro-6-[(cis-4-ethyl-4-hydroxycyclohexyl)methoxy]pyridin-3-yl}sulfonyl)-4-(4-{[2-(4-chlorophenyl)-4,4-dimethylcyclohex-1-en-1-yl]methyl}piperazin-1-yl)-2-(1H-indazol-4-yloxy)benzamide]",–,–,–,6.3,36.4,229
"O=C(NS(=O)(=O)c1ccccc1OCCN1CCCCC1)c1ccc(N2CCN(Cc3ccccc3-c3ccc(Cl)cc3)CC2)cc1Oc1ccccc1 [Example 32, 4-{4-[(4′-chloro-1,1′-biphenyl-2-yl)methyl]piperazin-1-yl}-2-phenoxy-N-{[2-(2-piperidin-1-ylethoxy)phenyl]sulfonyl}benzamide]",61.1,–,> 660,–,–,–
"CN(C)CCCNc1ccc(S(=O)(=O)NC(=O)c2ccc(N3CCN(CC4=C(c5ccc(Cl)cc5)CCC(C)(C)C4)CC3)cc2Oc2ccc3[nH]ccc3c2)cc1[N+](=O)[O-] [Example 51, 4-(4-{[2-(4-chlorophenyl)-5,5-dimethylcyclohex-1-en-1-yl]methyl}piperazin-1-yl)-N-[(4-{[3-(dimethylamino)propyl]amino}-3-nitrophenyl)sulfonyl]-2-(1H-indol-5-yloxy)benzamide]",0.252,–,15.6,–,–,–
"CN(C)CCCNc1ccc(S(=O)(=O)NC(=O)c2ccc(N3CCN(Cc4ccccc4-c4ccc(Cl)cc4)CC3)cc2Oc2ccccc2)cc1C(F)(F)F [Example 92, 4-{4-[(4′-chloro-1,1′-biphenyl-2-yl)methyl]piperazin-1-yl}-N-{[4-{[3-(dimethylamino)propyl]amino}-3-(trifluoromethyl)phenyl]sulfonyl}-2-phenoxybenzamide]",4.38,–,349,–,–,–
"O=C(NS(=O)(=O)c1ccc(NCCn2nccn2)c([N+](=O)[O-])c1)c1ccc(N2CCN(Cc3ccccc3-c3ccc(Cl)cc3)CC2)cc1Oc1ccccc1 [Example 165, 4-{4-[(4′-chloro-1,1′-biphenyl-2-yl)methyl]piperazin-1-yl}-N-[(3-nitro-4-{[2-(2H-1,2,3-triazol-2-yl)ethyl]amino}phenyl)sulfonyl]-2-phenoxybenzamide]",0.823,–,36.6,–,–,–
"CC1(C)CCC(CN2CCN(c3ccc(C(=O)NS(=O)(=O)c4ccc(NCC5CCOC5)c([N+](=O)[O-])c4)c(Oc4cccc5[nH]cnc45)c3)CC2)=C(c2ccc(Cl)cc2)C1 (stereo not drawn) [Example 439, 2-(1H-benzimidazol-4-yloxy)-4-(4-{[2-(4-chlorophenyl)-4,4-dimethylcyclohex-1-en-1-yl]methyl}piperazin-1-yl)-N-({3-nitro-4-[(tetrahydrofuran-3-ylmethyl)amino]phenyl}sulfonyl)benzamide]",–,–,–,< 0.01,–,15
"Cn1cncc1COc1ncc(S(=O)(=O)NC(=O)c2ccc(N3CCN(CC4=C(c5ccc(Cl)cc5)CC(C)(C)CC4)CC3)cc2Oc2cccc3[nH]ncc23)cc1Cl [Example 486, N-({5-chloro-6-[(1-methyl-1H-imidazol-5-yl)methoxy]pyridin-3-yl}sulfonyl)-4-(4-{[2-(4-chlorophenyl)-4,4-dimethylcyclohex-1-en-1-yl]methyl}piperazin-1-yl)-2-(1H-indazol-4-yloxy)benzamide]",–,–,–,0.328,77.6,25.5
"CC1(C)CCC(CN2CCN(c3ccc(C(=O)NS(=O)(=O)c4cnc(OCC5CCOCC5)c(Cl)c4)c(Oc4cccc5[nH]ncc45)c3)CC2)=C(c2ccc(Cl)cc2)C1 [Example 427, 4-(4-{[2-(4-chlorophenyl)-4,4-dimethylcyclohex-1-en-1-yl]methyl}piperazin-1-yl)-N-{[5-chloro-6-(tetrahydro-2H-pyran-4-ylmethoxy)pyridin-3-yl]sulfonyl}-2-(1H-indazol-4-yloxy)benzamide]",0.002,34408.6,85.6,–,–,–
